Assay results: patent US11866430B2, “Naphthyridinone compounds useful as T cell activators” (priority 2018, dated 2024)
Where two headings read alike, the source gives them in different places.

Key:
[1] = tested on: pre-activated CD4 T cells and Raji cells; test: Raji CD4 T Cell IL2 Assay; assay type: cell-based
human DGKα = human DGKα (Homo sapiens (Human), UniProt P23743); test: biochemical; settings: detergent/lipid micelle substrate; read-out: DGKα IC50
Procedure, shortened: (§1)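 Enzymes were baculovirus/Sf9 full-length human DGKα or DGKζ with His tag. The substrate was PS/DAG in octyl glucoside micelles, in MOPS pH 7.5 buffer with NaCl, MgCl2, CaCl2 and DTT.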

human DGKζ = human DGKζ (Homo sapiens (Human), UniProt Q13574); test: DGKζ assay (detergent/lipid micelle substrate); assay type: biochemical; settings: detergent/lipid micelle substrate; read-out: DGKζ IC50
Procedure, shortened: as §1

Sequence of human DGKα (P23743 other isoform, or with tags, fused parts or gaps): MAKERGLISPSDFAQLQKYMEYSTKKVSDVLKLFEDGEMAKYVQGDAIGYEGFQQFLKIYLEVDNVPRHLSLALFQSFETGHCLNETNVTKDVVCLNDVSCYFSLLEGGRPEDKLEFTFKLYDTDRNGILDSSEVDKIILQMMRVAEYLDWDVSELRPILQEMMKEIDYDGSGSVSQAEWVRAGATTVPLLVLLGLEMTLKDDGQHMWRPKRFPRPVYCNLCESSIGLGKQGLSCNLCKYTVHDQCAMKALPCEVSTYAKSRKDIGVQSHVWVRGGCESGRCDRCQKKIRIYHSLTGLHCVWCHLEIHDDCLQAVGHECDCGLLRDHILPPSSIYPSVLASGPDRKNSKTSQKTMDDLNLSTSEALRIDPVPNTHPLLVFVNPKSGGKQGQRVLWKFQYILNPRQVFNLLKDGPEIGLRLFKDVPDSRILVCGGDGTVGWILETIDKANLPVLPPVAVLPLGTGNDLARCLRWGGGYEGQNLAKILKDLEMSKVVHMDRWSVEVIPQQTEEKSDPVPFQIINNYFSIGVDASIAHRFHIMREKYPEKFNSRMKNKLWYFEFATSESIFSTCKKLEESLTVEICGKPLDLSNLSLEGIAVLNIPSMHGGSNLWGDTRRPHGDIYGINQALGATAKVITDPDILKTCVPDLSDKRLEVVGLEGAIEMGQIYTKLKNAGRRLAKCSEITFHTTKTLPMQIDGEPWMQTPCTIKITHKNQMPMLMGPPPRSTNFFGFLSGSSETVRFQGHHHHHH
Sequence of human DGKζ (Q13574 other isoform, or with tags, fused parts or gaps): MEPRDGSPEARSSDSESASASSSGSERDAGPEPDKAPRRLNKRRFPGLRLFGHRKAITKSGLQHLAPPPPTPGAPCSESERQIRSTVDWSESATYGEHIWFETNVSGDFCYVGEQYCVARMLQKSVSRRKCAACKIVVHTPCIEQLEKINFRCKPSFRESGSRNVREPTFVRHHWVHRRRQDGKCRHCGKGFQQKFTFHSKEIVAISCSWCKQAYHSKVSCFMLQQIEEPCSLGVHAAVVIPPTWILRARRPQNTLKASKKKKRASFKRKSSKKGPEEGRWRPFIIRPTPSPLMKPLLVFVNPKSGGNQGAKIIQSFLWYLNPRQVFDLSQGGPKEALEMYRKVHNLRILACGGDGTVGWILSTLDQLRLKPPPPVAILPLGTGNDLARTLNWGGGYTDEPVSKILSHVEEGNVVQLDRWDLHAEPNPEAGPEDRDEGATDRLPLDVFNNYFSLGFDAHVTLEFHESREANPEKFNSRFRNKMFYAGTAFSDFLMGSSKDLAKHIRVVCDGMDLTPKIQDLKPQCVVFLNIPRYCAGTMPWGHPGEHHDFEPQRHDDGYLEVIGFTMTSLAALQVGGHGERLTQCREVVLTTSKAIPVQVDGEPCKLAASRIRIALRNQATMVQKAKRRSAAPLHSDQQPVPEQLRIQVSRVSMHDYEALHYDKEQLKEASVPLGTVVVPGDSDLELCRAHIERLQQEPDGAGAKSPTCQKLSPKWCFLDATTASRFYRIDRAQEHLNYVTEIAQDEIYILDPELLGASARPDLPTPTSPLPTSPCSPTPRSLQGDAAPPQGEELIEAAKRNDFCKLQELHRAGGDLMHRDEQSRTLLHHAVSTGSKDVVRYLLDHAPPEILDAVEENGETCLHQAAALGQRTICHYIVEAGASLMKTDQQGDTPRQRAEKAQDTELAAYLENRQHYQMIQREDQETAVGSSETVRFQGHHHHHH

SMILES: Cn1c(=O)c(C#N)c(N2CCN(Cc3ccc(F)cc3F)CC2)c2nc(Cl)ccc21 [Example 350, 6-chloro-4-{4-[(2,4-difluorophenyl)methyl]piperazin-1-yl}-1-methyl-2-oxo-1,2-dihydro-1,5-naphthyridine-3-carbonitrile]
- IC50 ([1]; Homo sapiens, Raji): 1500 nM
- IC50 (human DGKα): 1200 nM
- IC50 (human DGKζ): > 81000 nM

SMILES: Cn1c(=O)c(C#N)c(N2CCN(Cc3cccc4cn[nH]c34)CC2)c2nc(Cl)ccc21 [Example 322, 6-chloro-4-{4-[(1H-indazol-7-yl)methyl]piperazin-1-yl}-1-methyl-2-oxo-1,2-dihydro-1,5-naphthyridine-3-carbonitrile]
- IC50 ([1]; Homo sapiens, Raji): 320 nM
- IC50 (human DGKα): 2800 nM
- IC50 (human DGKζ): > 240000 nM

SMILES: N#CCn1c(=O)c(C#N)c(N2CCN(C(c3ccc(F)cc3)c3ccc(F)cc3)CC2)c2nc(Br)ccc21 [Example 153, 4-(4-(bis(4-fluorophenyl)methyl)piperazin-1-yl)-6-bromo-1-(cyanomethyl)-2-oxo-1,2-dihydro-1,5-naphthyridine-3-carbonitrile]
- IC50 ([1]; Homo sapiens, Raji): 710 nM
- IC50 (human DGKα): 180000 nM
- IC50 (human DGKζ): 76000 nM

SMILES: Cn1c(=O)c(C#N)c(N2CCN(Cc3cc(Cl)cc(Cl)c3O)CC2)c2nc(Br)ccc21 [Example 366, 6-bromo-4-{4-[(3,5-dichloro-2-hydroxyphenyl)methyl]piperazin-1-yl}-1-methyl-2-oxo-1,2-dihydro-1,5-naphthyridine-3-carbonitrile]
- IC50 ([1]; Homo sapiens, Raji): > 100000 nM
- IC50 (human DGKα): 1300 nM
- IC50 (human DGKζ): 160000 nM

SMILES: COc1ccccc1C(c1ccc(F)cc1)N1CCN(c2c(C#N)c(=O)n(CC3CC3)c3ccc(Br)nc23)CC1 (single isomer, unassigned) [Example 159, 6-bromo-1-(cyclopropylmethyl)-4-(4-((4-fluorophenyl)(2-methoxyphenyl)methyl)piperazin-1-yl)-2-oxo-1,2-dihydro-1,5-naphthyridine-3-carbonitrile]
- IC50 ([1]; Homo sapiens, Raji): 2000 nM
- IC50 (human DGKα): 120000 nM
- IC50 (human DGKζ): > 240000 nM

SMILES: COc1cccc(CN2CCN(c3c(C#N)c(=O)n(C)c4ccc(C)nc34)CC2)c1O [Example 352, 4-{4-[(2-hydroxy-3-methoxyphenyl)methyl]piperazin-1-yl}-1,6-dimethyl-2-oxo-1,2-dihydro-1,5-naphthyridine-3-carbonitrile]
- IC50 ([1]; Homo sapiens, Raji): 1600 nM
- IC50 (human DGKα): 700 nM
- IC50 (human DGKζ): > 81000 nM

SMILES: Cn1c(=O)c(C#N)c(N2CCN(Cc3cc(Cl)cc(Cl)c3O)CC2)c2nc(Cl)ccc21 [Example 307, 6-chloro-4-{4-[(3,5-dichloro-2-hydroxyphenyl)methyl]piperazin-1-yl}-1-methyl-2-oxo-1,2-dihydro-1,5-naphthyridine-3-carbonitrile]
- IC50 ([1]; Homo sapiens, Raji): 210 nM
- IC50 (human DGKα): 1800 nM
- IC50 (human DGKζ): > 81000 nM

SMILES: Cn1c(=O)c(C#N)c(N2CCN(Cc3ccccc3O)CC2)c2nc(Cl)ccc21 [Example 198, 6-chloro-4-(4-(2-hydroxybenzyl)piperazin-1-yl)-1-methyl-2-oxo-1,2-dihydro-1,5-naphthyridine-3-carbonitrile]
- IC50 ([1]; Homo sapiens, Raji): 500 nM
- IC50 (human DGKα): 74 nM
- IC50 (human DGKζ): 150000 nM

SMILES: N#CCn1c(=O)c([N+](=O)[O-])c(N2CCN(C(c3ccc(F)cc3)c3ccc(F)cc3)CC2)c2nc(C#N)ccc21 [Example 152, 8-(4-(bis(4-fluorophenyl)methyl)piperazin-1-yl)-5-(cyanomethyl)-7-nitro-6-oxo-5,6-dihydro-1,5-naphthyridine-2-carbonitrile]
- IC50 ([1]; Homo sapiens, Raji): 150 nM
- IC50 (human DGKα): 150000 nM
- IC50 (human DGKζ): 3900 nM

SMILES: Cc1cccc(C(c2ccc(F)cc2)N2CCN(c3c([N+](=O)[O-])c(=O)n(C)c4ccc(Br)nc34)CC2)c1O (single isomer, unassigned) [Example 85, 6-bromo-4-(4-((4-fluorophenyl)(2-hydroxy-3-methylphenyl)methyl)piperazin-1-yl)-1-methyl-3-nitro-1,5-naphthyridin-2(1H)-one]
- IC50 ([1]; Homo sapiens, Raji): 100 nM
- IC50 (human DGKα): 7600 nM
- IC50 (human DGKζ): 770 nM

SMILES: C#CCn1c(=O)c([N+](=O)[O-])c(N2CCN(C(c3ccc(F)cc3)C3CC3)CC2)c2nc(C#N)ccc21 (single isomer, unassigned) [Example 144, 8-(4-(cyclopropyl(4-fluorophenyl)methyl)piperazin-1-yl)-7-nitro-6-oxo-5-(prop-2-yn-1-yl)-5,6-dihydro-1,5-naphthyridine-2-carbonitrile]
- IC50 ([1]; Homo sapiens, Raji): 20 nM
- IC50 (human DGKα): 530 nM
- IC50 (human DGKζ): 7900 nM

SMILES: Cn1c(=O)c([N+](=O)[O-])c(N2CCN(C(c3ccc(F)cc3)c3ccccc3O)CC2)c2nc(Br)ccc21 (stereo not drawn) [Example 70, 6-bromo-4-(4-((4-fluorophenyl)(2-hydroxyphenyl)methyl)piperazin-1-yl)-1-methyl-3-nitro-1,5-naphthyridin-2(1H)-one]
- IC50 ([1]; Homo sapiens, Raji): 8.9 nM
- IC50 (human DGKα): 130 nM
- IC50 (human DGKζ): 3300 nM

SMILES: Cn1c(=O)c(C#N)c(N2CCN(Cc3cc(OC(F)(F)F)ccc3O)CC2)c2nc(Br)ccc21 [Example 270, 6-bromo-4-(4-{[2-hydroxy-5-(trifluoromethoxy)phenyl]methyl}piperazin-1-yl)-1-methyl-2-oxo-1,2-dihydro-1,5-naphthyridine-3-carbonitrile]
- IC50 ([1]; Homo sapiens, Raji): 59 nM
- IC50 (human DGKα): 190 nM
- IC50 (human DGKζ): > 240000 nM

SMILES: COc1ccc2c(c1)C(N1CCN(c3c(C#N)c(=O)n(C)c4ccc(Br)nc34)CC1)CC2 (stereo not drawn) [Example 21, 6-bromo-4-[4-(6-methoxy-2,3-dihydro-1H-inden-1-yl)piperazin-1-yl]-1-methyl-2-oxo-1,2-dihydro-1,5-naphthyridine-3-carbonitrile]
- IC50 ([1]; Homo sapiens, Raji): 410 nM
- IC50 (human DGKα): 22000 nM
- IC50 (human DGKζ): 94000 nM

SMILES: Cn1c(=O)c([N+](=O)[O-])c(N2CCN(C(c3ccccc3)c3ccccc3O)CC2)c2nc(Br)ccc21 (single isomer, unassigned) [Example 79, 6-bromo-4-(4-((2-hydroxyphenyl)(phenyl)methyl)piperazin-1-yl)-1-methyl-3-nitro-1,5-naphthyridin-2(1H)-one]
- IC50 [1]: 67 nM
- IC50 (human DGKα): 81000 nM
- IC50 (human DGKζ): > 81000 nM

SMILES: COc1ccccc1C(c1ccc(F)cc1)N1CCN(c2c(C#N)c(=O)n(CC3CC3)c3ccc(Br)nc23)CC1 (single isomer, unassigned) [Example 160, 6-bromo-1-(cyclopropylmethyl)-4-(4-((4-fluorophenyl)(2-methoxyphenyl)methyl)piperazin-1-yl)-2-oxo-1,2-dihydro-1,5-naphthyridine-3-carbonitrile]
- IC50 [1]: 2900 nM
- IC50 (human DGKα): 180000 nM
- IC50 (human DGKζ): 160000 nM

SMILES: Cn1c(=O)c(C#N)c(N2CCN(Cc3cc(F)ccc3F)CC2)c2nc(Cl)ccc21 [Example 318, 6-chloro-4-{4-[(2,5-difluorophenyl)methyl]piperazin-1-yl}-1-methyl-2-oxo-1,2-dihydro-1,5-naphthyridine-3-carbonitrile]
- IC50 ([1]; Homo sapiens, Raji): 290 nM
- IC50 (human DGKα): 850 nM
- IC50 (human DGKζ): 140000 nM

SMILES: Cn1c(=O)c([N+](=O)[O-])c(N2CCN(C3(c4ccc(F)cc4)CC3)CC2)c2nc(C#N)ccc21 [Example 342, 8-{4-[1-(4-fluorophenyl)cyclopropyl]piperazin-1-yl}-5-methyl-7-nitro-6-oxo-5,6-dihydro-1,5-naphthyridine-2-carbonitrile]
- IC50 ([1]; Homo sapiens, Raji): 790 nM
- IC50 (human DGKα): 28000 nM
- IC50 (human DGKζ): > 240000 nM

SMILES: Cn1c(=O)c([N+](=O)[O-])c(N2CCN(C(c3ccc(F)cc3)c3ccc(F)cc3O)CC2)c2nc(C#N)ccc21 (stereo not drawn) [Example 122, 8-(4-((4-fluoro-2-hydroxyphenyl)(4-fluorophenyl)methyl)piperazin-1-yl)-5-methyl-7-nitro-6-oxo-5,6-dihydro-1,5-naphthyridine-2-carbonitrile]
- IC50 ([1]; Homo sapiens, Raji): 11 nM
- IC50 (human DGKα): 1000 nM
- IC50 (human DGKζ): 720 nM

SMILES: Cc1cccc(OCc2cncc(C#N)c2)c1C(c1ccc(F)cc1)N1CCN(c2c([N+](=O)[O-])c(=O)n(C)c3ccc(Br)nc23)CC1 (single isomer, unassigned) [Example 89, 5-((2-((4-(6-bromo-1-methyl-3-nitro-2-oxo-1,2-dihydro-1,5-naphthyridin-4-yl)piperazin-1-yl)(4-fluorophenyl)methyl)-3-methylphenoxy)methyl)nicotinonitrile]
- IC50 [1]: 2800 nM
- IC50 (human DGKα): 41000 nM
- IC50 (human DGKζ): > 240000 nM

SMILES: C#CCOc1ccccc1C(c1ccc(F)cc1)N1CCN(c2c(C#N)c(=O)n(C)c3ccc(Br)nc23)CC1 (single isomer, unassigned) [Example 6, 6-bromo-4-{4-[(4-fluorophenyl) [2-(prop-2-yn-1-yloxy)phenyl]methyl]piperazin-1-yl}-1-methyl-2-oxo-1,2-dihydro-1,5-naphthyridine-3-carbonitrile]
- IC50 [1]: 820 nM
- IC50 (human DGKα): 6500 nM
- IC50 (human DGKζ): > 240000 nM

SMILES: COc1ccccc1C(c1ccc(F)cc1)N1CCN(c2c([N+](=O)[O-])c(=O)n(C)c3ccc(C#N)nc23)CC1 (racemic) [Example 18, 8-{4-[(4-fluorophenyl)(2-methoxyphenyl)methyl]piperazin-1-yl}-5-methyl-7-nitro-6-oxo-5,6-dihydro-1,5-naphthyridine-2-carbonitrile]
- IC50 ([1]; Homo sapiens, Raji): 23 nM
- IC50 (human DGKα): 960 nM
- IC50 (human DGKζ): 2500 nM

SMILES: COCCCn1c(=O)c([N+](=O)[O-])c(N2CCN(C(c3ccccc3)c3ccccc3)CC2)c2ncccc21 [Example 190, 4-(4-benzhydrylpiperazin-1-yl)-1-(3-methoxypropyl)-3-nitro-1,5-naphthyridin-2(1H)-one]
- IC50 ([1]; Homo sapiens, Raji): 4200 nM
- IC50 (human DGKα): 58000 nM
- IC50 (human DGKζ): > 240000 nM

SMILES: Cn1c(=O)c(C#N)c(N2CCN(Cc3cccc(Cl)c3)CC2)c2nc(Cl)ccc21 [Example 302, 6-chloro-4-{4-[(3-chlorophenyl)methyl]piperazin-1-yl}-1-methyl-2-oxo-1,2-dihydro-1,5-naphthyridine-3-carbonitrile]
- IC50 ([1]; Homo sapiens, Raji): 180 nM
- IC50 (human DGKα): 610 nM
- IC50 (human DGKζ): > 81000 nM

SMILES: Cn1c(=O)c(C#N)c(N2CCN(Cc3c(O)cccc3Br)CC2)c2nc(Br)ccc21 [Example 271, 6-bromo-4-{4-[(2-bromo-6-hydroxyphenyl)methyl]piperazin-1-yl}-1-methyl-2-oxo-1,2-dihydro-1,5-naphthyridine-3-carbonitrile]
- IC50 ([1]; Homo sapiens, Raji): 61 nM
- IC50 (human DGKα): 1100 nM
- IC50 (human DGKζ): 110000 nM
